Data as given in patent publication US20230115675A1, “METHODS OF TREATING CANCER” (The Broad Institute, Inc., priority 2020, published 2023).
Like-named read-outs stand apart in the source and are kept apart here.

How the values were obtained:
[1] = tested on: A549 cell lines; test: Whole genome CRISPR/Cas9 deletion screens with copper bound ionophores; format: cell-based; details: positive selection
Protocol: These genes included FDX1, protein lipoylation enzymes (LIAS, LIPT1, and DLD) and subunits of the lipoylated protein complex pyruvate dehydrogenase (DLAT, PDHA1, and PDHB).
FIG. 54A-E show exemplary plots of the log fold change versus the calculated p-value of FDX1 (A), DLAT (B), DLD (C) and LIAS (D) genes from the two whole genome CRISPR/Cas9 deletion screens in A549 cell lines for two concentrations of elesclomol-Cu (40 nM and 100 nM). (E) The correlation scores of FDX1 mRNA expression with the viability of 724 cancer cell lines as previously determined (4) for the different concentrations of elesclomol.

[2] = tested on: 143B rho0 cells; test: Viability of 143B and 143B Rho0 cells; format: cell-based; details: 72 hours
Protocol: (§1) To establish if this effect is mediated by the electron transfer chain (ETC), 143B rho0 cells (lacking mitochondrial DNA) and their parental controls (143B) were tested.

[3] = tested on: NCHIH2030 cells; test: Viability in media containing glucose or galactose; format: cell-based; details: glucose replaced with galactose in the media
Protocol: FIG. 32G-L show exemplary viability results of NCHIH2030 cells grown in the presence of 10 mM glucose or 10 mM galactose in the media after 72 hours (Pyrithione-Cu is Pyrithione-CuCl2 (1:1); TMT-Cu is TMT-CuCl2 (1:1); 8HQ-Cu is 8-HQ-CuCl2 (1:1); Disulfiram-Cu is Disulfiram-CuCl2 (1:1); NSC319726-Cu is NSC319726-Cu Cl2 1(1:1); AntiA is Antimycin A).
as §1

[4] = tested on: MON cells; test: Viability after treatment with drugs in the presence of metal salts; format: cell-based; details: for cell death promoted by Zinc: 10 μM ZnCl2
Protocol: Metal binding compounds can induce a toxic phenotype either by sequestration (chelation) of metals from essential factors or by shuttling (e.g., an ionophore) of metals to cellular compartments where they are toxic.
The viability of MON cells was measured following treatment with increasing doses of indicated drugs in the presence of 10 μM FeCl2, FeCl3, ZnCl2, NiCl, CuCl2, or CoCl2 (FIG. 13). The viability of NCIH2030 cells was measured following treatment with increasing doses of indicated drugs in the presence of 10 μM FeCl2, FeCl3, ZnCl2, NiCl, CuCl2, or CoCl2 (FIG. 14).

[5] = tested on: HCM18 cells; test: Viability of HCM18 control and Bak/Bax deleted cells; format: cell-based; details: HCM18 Bak/Bax knock out vs control
Source text: FIG. 32A-F show exemplary viability results of HCM18 control cells or […] deletion cells after treatment with indicate concentrations of different compounds (Pyrithione-Cu is Pyrithione-CuCl2 (1:1); TMT-Cu is TMT-CuCl2 (1:1); 8HQ-Cu is 8-HQ-CuCl2 (1:1); Disulfiram-Cu is Disulfiram-CuCl2 (1:1); NSC319726-Cu is NSC319726-Cu Cl2 1(1:1); AntiA is Antimycin A).
Both iron and copper can generate highly reactive hydroxyl radical (.OH) from O2.— and H2O2 in the cell via the Fenton reaction. In the case of iron, this can result in lipid radicals that induce ferroptosis, a non-apoptotic cell death. […] As such, to determine if elesclomol induced cell death is apoptotic, a genetic approach was undertaken using the HCM18 cells that have the crucial apoptosis effectors (Bak and Bax) knocked out (FIG. 29). […] However, the ability of elesclomol-copper to induce cell death was unaffected (FIG. 11). Other copper binding molecules were tested in these cell lines and in all cases the efficacy of these compounds was unaffected by the genetic perturbation of the apoptosis pathway (FIG. 32).

[6] = tested on: Biomarker-positive cells; test: Cell culture washout (short exposure mimicking PK); format: cell-based; details: for sensitivity of biomarker-positive cells: high FDX1 expression vs biomarker negative
Protocol: […] Panels D and Panel E show the relative changes in metabolites as measured in ABC1(D) and A549 (E) 24 hours after a 2 hour pulse treatment with 100 nM elesclomol.
Biomarker-positive cells are sensitive to elesclomol-Cu(II) treatment corresponding to measured concentrations and kinetics measured in mice pharmokinetic (PK) studies.
Study simulates short exposure time that mimics the pharmokinetic (PK) properties of elesclomol-Cu(II).
Data supports Cmax driven activity profile. Cells will be used to establish a SubQ xenograft model where different copper ionophores could be analyzed for their efficacy.

[7] = tested on: OVISE cells; test: Viability after LIAS or FDX1 gene deletion; format: cell-based
[8] = target: T1, FDX1 (Homo sapiens, UniProt P10109); details: cited from earlier work; for binding to FDX1: previously shown
T1 sequence (P10109 61-184): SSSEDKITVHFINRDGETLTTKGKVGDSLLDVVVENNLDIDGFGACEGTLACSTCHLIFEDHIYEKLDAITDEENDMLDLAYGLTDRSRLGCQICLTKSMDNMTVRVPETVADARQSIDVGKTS

[9] = tested on: A549 cells; test: Viability after FDX1 or LIAS gene deletion; format: cell-based
Source text: It has been previously shown that ferredoxin 1 (FDX1) is an important mediator of elesclomol-induced toxicity. […] To better understand the potential downstream mediators of cuproptosis, a CRISPR/Cas9 deletion strategy was used. […] In all conditions, FDX1 gene was the highest scoring hit, emphasizing the importance of this gene in elesclomol mediated toxicity (FIG. 33). […] The lipoic acid pathway mediates the lysine lipoylation of specific enzymes (DLAT, DLST, DBT, GCSH) that is crucial for their function (FIG. 34). […] This hypothesis was particularly appealing as lipoylation is required for mitochondrial respiration and lipoic acid has shown to have a high affinity binding to copper.

[10] = tested on: lipid peroxidation; test: Lipid peroxidation; format: cell-based
[11] = tested on: three cell lines; test: Pre-treatment with compounds that block known cell death pathways; format: cell-based
Source text: To further establish which cell death pathways might be mediating the elesclomol induced copper-dependent cell death, a chemical approach was undertaken using compounds that block critical niches of known cell death pathways. […] As controls, ferroptosis-inducing GPX4 inhibitor (ML162) and apoptosis-inducing proteasome inhibitor (bortezomib) were used. […] Ferroptosis or apoptosis-altering compounds (as shown in the ML162 and bortezomib controls) had no effect on elesclomol-copper-induced cell death. […] The slight changes observed are most likely due to the copper chelating properties of the molecule. […] Given the absolute dependency and regulation of this cell death pathway by copper, this process is referred to as ‘cuproptosis’ for simplicity.

[12] = Tsvetkov et al., Nat Chem Bio, 2019; cited from earlier work
[13] = tested on: lipoyl-DLAT and lipoyl-DLST; test: Western blot of lipoylated proteins; format: cell-based
Protocol: CRISPR KO FDX1 cell lines or CRISPR KO LIAS cell lines were created and were assessed for levels of lipoylated proteins lipoyl-DLAT and lipoyl-DLST by Western Blot (FIG. 8).
Lipoic acid is a strong binder of copper, making it plausible that elesclomol bound copper could directly affect the lipoylated proteins. Indeed, the addition of elesclomol at concentrations as low as 10 nM reduced the levels of lipoylated proteins without dramatically affecting the protein levels (FIG. 36 and FIG. 37).
The levels of lipoylation decrease following treatment of A549 cells with 1 μM elesclomol (+CuCl2) (FIG. 26).

[14] = tested on: tumors; test: Lipoic acid staining as biomarker of sensitivity
Source text: Lipoic acid was stained in FDX1 KO cells by an immunohistochemistry assay.

[15] = tested on: ABC1 cells; test: Elesclomol sensitivity of single cell clones with AAVS1 or FDX1 deletion; format: cell-based; details: in the presence of 1 uM CuCl2
[16] = tested on: multiple cell line models; test: Elesclomol-induced cell death depending on copper availability (supplementation, TTM chelation, serum); format: cell-based
Source text: The sensitivity of cells to elesclomol is dependent on copper availability. […] Copper is not supplemented in the media (RPMI) and therefore the availability of copper is restricted to the abundance of copper in serum, which can strongly vary. […] Thus, the efficacy of elesclomol is dependent on extracellular and intracellular copper availability.

[17] = cited from earlier work
[18] = Tsvetkov et al., Nat Chem Bio, 2019

## CCN(CC)C(=S)[S-].CCN(CC)C(=S)[S-].[Cu+2] [Cu-DDC]
[1]
  effect of deletion of FDX1, protein lipoylation and PDH genes: promotes resistance

## [O-][n+]1ccccc1[S-].[O-][n+]1ccccc1[S-].[Zn+2] [Pyrithione, Pyrithione Zinc]
[2]
  sensitivity of 143B rho0 cells compared with parental 143B: equally sensitive
[3]
  effect of shift to mitochondrial metabolism on sensitivity: rather mild
[4]; to a lower extent than copper
  cell death promoted by Zinc: also able to promote the cell death

## Oc1cccc2cccnc12 [8HQ, Oxyquinoline]
[2]
  sensitivity of 143B rho0 cells compared with parental 143B: equally sensitive
[3]
  effect of shift to mitochondrial metabolism on sensitivity: rather mild
[4]; 10 μM FeCl2, FeCl3, to a lower extent than copper
  cell death promoted by Iron: also able to promote the cell death

## CC(=O)O[C@H]1C(=O)[C@@]2(C)[C@H]([C@H](OC(=O)c3ccccc3)[C@]3(O)C[C@H](OC(=O)[C@H](O)[C@@H](NC(=O)c4ccccc4)c4ccccc4)C(C)=C1C3(C)C)[C@]1(OC(C)=O)CO[C@@H]1C[C@@H]2O [paclitaxel]
[5]
  efficacy in Bak/Bax deleted cells: strongly inhibited

## CN1C(c2ccccc2)=[SH][Cu+2]23[SH]=C(c4ccccc4)N(C)[N]2C(=O)CC(=O)[N]13 [elesclomol-Cu(II)]
[6]; 2 hour exposure at 200 nM followed by washout
  biomarker selective cell killing after short exposure: sufficient to effect biomarker selective cell killing
[6]
  sensitivity of biomarker-positive cells: sensitive
[7]
  effect of deletion of LIAS or FDX1 in OVISE cells: resistance
[8]; [18]
  substrate of FDX1: neo-substrate of FDX1
[9]; A549
  effect of deletion of FDX1 in A549 cells: relative resistance
[9]; multiple cell models
  effect of deletion of FDX1: conferred resistance

## CN([N-]C(=O)CC(=O)[N-]N(C)C(=[SH+])c1ccccc1)C(=[SH+])c1ccccc1.[Cu] [elesclomol-Cu(II)]
[10]
  change in lipid peroxidation: did not induce a profound change
[11]; pre-treatment of cells
  block of cell death by pan-caspase inhibitors, Ferrostatin-1, Necrostatin-1, antioxidants: did not block
[5]
  efficacy in Bak/Bax deleted cells: unaffected
[1]
  effect of deletion of FDX1, protein lipoylation and PDH genes: promotes resistance

## CN(NC(=O)CC(=O)NN(C)C(=S)c1ccccc1)C(=S)c1ccccc1 [elesclomol, Elesclomol]
[12]
  copper dependence of killing: copper dependent
[6]
  sensitivity of biomarker-positive cells: more sensitive
[2]
  sensitivity of 143B rho0 cells compared with parental 143B: slightly more sensitive
[13]; 1 μM over 6 hours
  lipoyl-DLAT and lipoyl-DLST protein levels: decreased over time
[13]; A549 cells, 1 μM (+CuCl2)
  levels of lipoylation: decrease
[13]; without dramatically affecting the protein levels
  concentration that reduced the levels of lipoylated proteins: ≤ 10 nM
[14]
  sensitivity of tumors with increased levels of lipoic acid: sensitive
[8]; [18]
  FDX1 activity in vitro: inhibits FDX1 activity
[8]
  binding to FDX1: direct target
[8]; listed as Elesclomol
  binding to FDX1: directly binds
[15]
  effect of decrease of FDX1 beyond certain threshold: increases the cell resistance
[11]; three cell lines tested, TTM
  block of cell death by copper chelation: only copper chelation by TTM, was able to block
[3]
  effect of shift to mitochondrial metabolism on sensitivity: increasingly more sensitive
[16]; completely reversed by addition of copper
  sensitivity in media lacking serum: increased resistance
[16]; copper 1 μM in media or 1:1 ratio with compound
  elesclomol-induced cell death upon addition of copper: strongly augment
[16]; multiple cell line models
  elesclomol induced cell death upon chelation of copper with tetrathiomolybdate (TTM): completely blocks
[16]; subset of ovarian cancer cell lines
  variability of efficacy with copper supplementation: strongly reduces the variability
[4]; among compounds of the cluster
  selectivity of metal binding: most selective binding to copper
[17]; in combination with paclitaxel
  Phase II trial outcome: may provide a cancer progression-free survival benefit
[17]; in vivo
  Phase III trial outcome: failed
[9]
  effect of deletion of LIAS: sufficient to promote resistance

## C/C(=N\NC(=S)N1CCC1)c1ccccn1 [NSC-319726]
[2]
  sensitivity of 143B rho0 cells compared with parental 143B: equally sensitive
[4]; to a lower extent than copper
  cell death promoted by Zinc: also able to promote the cell death

## CCN(CC)C(=S)SSC(=S)N(CC)CC [disulfiram, tetraethylthiuram disulfide]
[2]
  sensitivity of 143B rho0 cells compared with parental 143B: slightly more sensitive
[14]
  sensitivity of tumors with increased levels of lipoic acid: sensitive
[4]; to a lower extent than copper
  cell death promoted by Zinc: also able to promote the cell death

## CN(C)C(=S)SC(=S)N(C)C [TMT, tetra methyl thiuram monosulfide]
[2]
  sensitivity of 143B rho0 cells compared with parental 143B: equally sensitive
[3]
  effect of shift to mitochondrial metabolism on sensitivity: rather mild
